Test systems include NCI-H460 lung; MCF7 breast; IGROV1 ovarian; SW-620 colon; RPMI-8226 leukemia; OVCAR-5 ovarian; SF-295 CNS; T-47D breast; ACHN renal; NCI-H23 lung.
Holding throughout (assay): inhibition of tumour cell growth, NCI panel, 48 h

Each structure is given as a SMILES string. Values joined by “and” are separate entries in the source; they are usually repeats but may differ in a detail not shown here. Equal entries are not always repeated.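 Growth conditions: 96-well plates. Treatment: test compound, 48 hours, 5 concentrations. Analysis: linear interpolation between bracketing concentrations; unreached endpoints set to highest concentration. The concentration for 50% growth inhibition is given as GI50. TGI: concentration producing complete growth inhibition.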 A value given as a limit tells only on which side of the number the result lay.

As for `COc1ccc(-c2cc(=O)c3c(O)cc(C)cc3o2)cc1OC`, the TGI in the experiment on NCI-H460 lung, in the experiment on MCF7 breast, with IGROV1 ovarian, in the experiment with SW-620 colon, in the experiment on RPMI-8226 leukemia and with OVCAR-5 ovarian was above 100 µM each time. Also, the TGI in the experiment with SF-295 CNS, in the experiment with T-47D breast, in the experiment on ACHN renal and in the experiment with NCI-H23 lung was above 100 µM in each case.
Consider `C=C(C)[C@@H]1CC[C@]2(COC3CCCCO3)CC[C@]3(C)[C@H](CC[C@@H]4[C@@]5(C)C=C(C=O)C(=O)C(C)(C)[C@@H]5CC[C@]43C)[C@@H]12` (some centres undefined), for which the GI50 with NCI-H460 lung was 2.02 µM; in the experiment on MCF7 breast, 1.52 µM; in the experiment with IGROV1 ovarian, 2.13 µM; with SW-620 colon, 1.13 µM; in the experiment on RPMI-8226 leukemia it was 1.59 µM; in the experiment on OVCAR-5 ovarian, 1.79 µM. Moreover, the GI50 in the experiment on SF-295 CNS was 1.5 µM; in the experiment with T-47D breast, 1.33 µM; with ACHN renal, 1.26 µM; with NCI-H23 lung it was 1.62 µM. Besides, the TGI was found to be 4.22 µM in the experiment on NCI-H460 lung; 3.43 µM in the experiment with MCF7 breast; 4.56 µM in the experiment with IGROV1 ovarian; 2.87 µM in the experiment on SW-620 colon; 8.3 µM with RPMI-8226 leukemia; 4.21 µM in the experiment with OVCAR-5 ovarian. In addition, the TGI in the experiment on SF-295 CNS was 2.96 µM; in the experiment on T-47D breast it was 3.01 µM; in the experiment with ACHN renal it was 2.52 µM; with NCI-H23 lung, 3.63 µM.
Regarding `O=C1/C(=C/c2ccccc2)CN(C(=O)OCc2ccccc2)C/C1=C\c1ccccc1`, the GI50 was 5.47 µM in the experiment on NCI-H460 lung; 1.44 µM with SW-620 colon; 0.169 µM and 0.2 µM in the experiment with RPMI-8226 leukemia; 3.63 µM in the experiment with SF-295 CNS. The TGI with NCI-H460 lung was above 46.4 µM; with MCF7 breast, 37.2 µM; in the experiment on IGROV1 ovarian, 23.8 µM; in the experiment on SW-620 colon, 3.72 µM and 15.5 µM; in the experiment with RPMI-8226 leukemia, 0.737 µM and 0.647 µM; in the experiment on OVCAR-5 ovarian it was 30.8 µM. Also, the TGI was 26.7 µM with SF-295 CNS, above 100 µM in the experiment on T-47D breast, 25.7 µM with ACHN renal and 32.6 µM in the experiment on NCI-H23 lung.
As for `Cc1c(NC(=O)OC[C@@H]2COCCN2)cn2ncnc(Nc3ccc4c(cnn4Cc4cccc(F)c4)c3)c12`, the GI50 with NCI-H460 lung is > 10 µM and 6.57 µM; in the experiment on MCF7 breast, > 10 µM and 12.1 µM; in the experiment with IGROV1 ovarian, 0.855 µM and 2.16 µM; with SW-620 colon it was > 10 µM and 10.5 µM; in the experiment on RPMI-8226 leukemia, 5.35 µM and 6.35 µM; in the experiment on OVCAR-5 ovarian, > 10 µM and 8.82 µM. Further, the GI50 is 9.08 µM and 5.67 µM in the experiment with SF-295 CNS; 1.36 µM and 1.14 µM in the experiment with T-47D breast; 0.576 µM and 0.44 µM in the experiment with ACHN renal; > 10 µM and 11.9 µM in the experiment on NCI-H23 lung. In addition, the TGI in the experiment with NCI-H460 lung was > 10 µM and 24 µM; in the experiment with MCF7 breast it was > 10 µM and 33.6 µM; in the experiment on IGROV1 ovarian it was > 10 µM and 19.9 µM; in the experiment with SW-620 colon it was > 10 µM and 24.6 µM; with RPMI-8226 leukemia it was > 10 µM and 28.2 µM; in the experiment on OVCAR-5 ovarian, > 10 µM and 21.4 µM. In addition, the TGI was > 10 µM and 20.6 µM in the experiment with SF-295 CNS; 9.52 µM and 10.3 µM in the experiment on T-47D breast; > 10 µM and 15.3 µM in the experiment with ACHN renal; > 10 µM and 26.4 µM in the experiment with NCI-H23 lung.
As to `COc1ccc(C(=O)COc2cccc(/C=C3\CSc4ccc(C)cc4C3=O)c2)cc1`, the GI50 in the experiment on NCI-H460 lung is above 100 µM; in the experiment on MCF7 breast, 2.64 µM; with IGROV1 ovarian, 12.2 µM; in the experiment with SW-620 colon it was 2.03 µM; with RPMI-8226 leukemia, 1.89 µM; with OVCAR-5 ovarian, 51.9 µM. Also, the GI50 was 15.8 µM in the experiment on SF-295 CNS, 11.7 µM in the experiment with T-47D breast, 25.7 µM with ACHN renal and 6.99 µM in the experiment on NCI-H23 lung. In addition, the TGI in the experiment on NCI-H460 lung is above 100 µM; in the experiment on MCF7 breast, 31.3 µM; in the experiment with IGROV1 ovarian it was 43.8 µM; with SW-620 colon it was 4.74 µM; with RPMI-8226 leukemia, 6.47 µM; in the experiment on OVCAR-5 ovarian, above 100 µM. For the same compound, the TGI in the experiment on SF-295 CNS, with T-47D breast, in the experiment with ACHN renal and with NCI-H23 lung was above 100 µM each time.
`COc1ccccc1S(=O)(=O)Nc1ccc2c(c1)CN(C)C(=O)N2`: the GI50 was 10.6 µM and 13.4 µM with NCI-H460 lung; 1.87 µM and 1.48 µM with MCF7 breast; 6.42 µM and 5.7 µM with IGROV1 ovarian; 20.3 µM and 14.5 µM with SW-620 colon; 2.16 µM and 1.89 µM in the experiment with RPMI-8226 leukemia; 9.5 µM and 11.7 µM in the experiment on OVCAR-5 ovarian. Moreover, the GI50 in the experiment on SF-295 CNS was 6.48 µM and 9.42 µM; with T-47D breast, 3.27 µM; in the experiment with ACHN renal, 4.76 µM and 8.29 µM; with NCI-H23 lung, 7.03 µM and 12.8 µM. Further, the TGI with NCI-H460 lung, in the experiment on MCF7 breast, with IGROV1 ovarian, in the experiment with SW-620 colon, in the experiment with RPMI-8226 leukemia and in the experiment on OVCAR-5 ovarian was above 100 µM in each case. Moreover, the TGI in the experiment on SF-295 CNS, with T-47D breast, in the experiment with ACHN renal and in the experiment with NCI-H23 lung was above 100 µM throughout.

These data come from PubChem BioAssay (NCI).
